{
  "source": "patent US20050013862A1",
  "about": "“Functional powders for oral delivery” (Vectura Limited, priority 2001, published 2005)",
  "assay": "Twin Stage Impinger fine particle fraction",
  "assay_type": "physicochemical",
  "settings": "glass, 12.8 mm jet",
  "description": "A Twin Stage Impinger Apparatus (glass with a 12.8 mm jet) was used to determine the fine particle fraction of the formulations of Examples 10, 11 (steps 1 & 2), 11 (step 1 only), 14, and 15, with the following results: […]",
  "data": [
    {"smiles": "COc1ccc2c(c1)c(CC(=O)O)c(C)n2C(=O)c1ccc(Cl)cc1", "note": "[Raw indomethacin (pulverized), indomethacin]", "values": [
      {"measurement": "Average % Fine Particle Fraction at 601/min (n = 5)", "value": 3.89, "unit": "%"}
    ]}
  ]
}
